Data published in US6858591B2, “Antibiotic AA 896 analogs” (Wyeth Holdings Corporation, priority 2001, dated 2005).
Converted amounts (≈) assume the structure as drawn. Where two headings read alike, the source gives them in different places.

Key:
Assay in all cases: In vitro MIC, broth dilution
Assay type in all cases: cell-based
S. marcescens GC 4077 = settings: Serratia marcescens, GC4077
E. coli GC 3226 = settings: Escherichia coli, GC3226
M. morganii GC 4531 = settings: Morganella morganii, GC4531
P. aeruginosa GC 4532 = settings: Pseudomonas aeruginosa, GC4532
E. cloacae GC 3783 = settings: Enterobacter cloacae, GC3783
E. coli GC 4559 = settings: Escherichia coli, GC4559
C. albicans GC 3066 = settings: Candida albicans, GC3066
P. aeruginosa GC 2214 = settings: Pseudomonas aeruginosa, GC2214
K. pneumoniae GC 4534 = settings: Klebsiella pneumoniae, GC4534
E. coli GC 4560 = settings: Escherichia coli, GC4560
E. coli GC 2203 = settings: Escherichia coli, GC2203
E. faecalis GC 842 = settings: Enterococcus faecalis, GC842
Procedure: (§1) The minimum inhibitory concentration (MIC), the lowest concentration of the antibiotic which inhibits growth of the test organism, is determined by the broth dilution method using Muller-Hinton II […] (Baltimore Biological Laboratories) following the recommendations of National Committee for Clinical Laboratory Standards. [Reference for the Methods for dilution antimicrobial susceptibility tests for bacteria that grow aerobically: National Committee for Clinical Laboratory Standards, 1997. Approved standard M7-A National Committee for Clinical Laboratory Standards, Wayne, Pa.] An inoculum level of 5×10^5 CFU/ml, and a range of antibiotic concentrations (64-0.06 μg/ml) is used. The MIC is determined after the microtiter plates are incubated for 18 hours at 35° C. in an ambient air incubator. The test organisms comprise a spectrum of gram-positive bacteria including Staphylococcus sp., Streptococcus sp. and Enterococcus sp. These organisms include recent clinical isolates that are resistant to methicillin, penicillin and vancomycin.

CNS GC 4537 = system: CNS GC 4537
Procedure: as §1

S. aureus GC 1131 = settings: Staphylococcus aureus, GC1131
Procedure: as §1

S. aureus GC 2216 = settings: Staphylococcus aureus, GC2216
Procedure: as §1

CNS GC 4538 = system: CNS GC 4538
Procedure: as §1

E. faecalis GC 4555 = settings: Enterococcus faecalis, GC4555
Procedure: as §1

S. aureus GC 4536 = settings: Staphylococcus aureus, GC4536
Procedure: as §1

E. faecalis GC 2242 = settings: Enterococcus faecalis, GC2242
Procedure: as §1

CNS GC 4547 = system: CNS GC 4547
Procedure: as §1

[1] = S. marcescens GC 4077, read-out: MIC
[2] = M. morganii GC 4531, read-out: MIC
[3] = P. aeruginosa GC 4532, read-out: MIC
[4] = E. cloacae GC 3783, read-out: MIC
[5] = C. albicans GC 3066, read-out: MIC
[6] = P. aeruginosa GC 2214, read-out: MIC
[7] = K. pneumoniae GC 4534, read-out: MIC
[8] = E. faecalis GC 842, read-out: MIC
[9] = S. aureus GC 1131, read-out: MIC
[10] = S. aureus GC 2216, read-out: MIC
[11] = E. faecalis GC 4555, read-out: MIC
[12] = S. aureus GC 4536, read-out: MIC
[13] = E. faecalis GC 2242, read-out: MIC

Compound | MIC (S. marcescens GC 4077; [1]) | MIC (E. coli GC 3226; E. coli GC 3226, read-out: MIC) | MIC (M. morganii GC 4531; [2]) | MIC (P. aeruginosa GC 4532; [3]) | MIC (E. cloacae GC 3783; [4]) | MIC (E. coli GC 4559; E. coli GC 4559, read-out: MIC) | MIC (C. albicans GC 3066; [5]) | MIC (P. aeruginosa GC 2214; [6]) | MIC (K. pneumoniae GC 4534; [7]) | MIC (E. coli GC 4560; E. coli GC 4560, read-out: MIC) | MIC (E. coli GC 2203; E. coli GC 2203, read-out: MIC) | MIC (E. faecalis GC 842; [8]) | MIC (CNS GC 4537; CNS GC 4537, read-out: MIC) | MIC (S. aureus GC 1131; [9]) | MIC (S. aureus GC 2216; [10]) | MIC (CNS GC 4538; CNS GC 4538, read-out: MIC) | MIC (E. faecalis GC 4555; [11]) | MIC (S. aureus GC 4536; [12]) | MIC (E. faecalis GC 2242; [13]) | MIC (CNS GC 4547; CNS GC 4547, read-out: MIC) | further results
COc1ccc(Cn2c(=O)ccn([C@@H]3OC([C@H](O)[C@H](NCCCNC(=O)[C@H](CC(C)C)NC(=O)OCc4ccccc4)C(=O)OC(C)(C)C)[C@@H](O[Si](C)(C)C(C)(C)C)[C@H]3O[Si](C)(C)C(C)(C)C)c2=O)cc1 (stereo partly drawn) [Example 4, tert-Butyl (5S,12S)-12-[(R)-[(3R,4R,5R)-3,4-bis{[tert-butyl(dimethyl)silyl]oxy}-5-(3-(4-methoxybenzyl)-2,4-dioxo-3,4-dihydro-1(2H)-pyrimidinyl)tetrahydro-2-furanyl](hydroxy)methyl]-5-isobutyl-3,6-dioxo-1-phenyl-2-oxa-4,7,11-triazatridecan-13-oate] | > 128 µg/mL | > 128 µg/mL | > 128 µg/mL | > 128 µg/mL | > 128 µg/mL | > 128 µg/mL | > 128 µg/mL | 128 µg/mL (≈ 125 µM) | > 128 µg/mL | > 128 µg/mL | > 128 µg/mL | > 128 µg/mL | > 128 µg/mL | > 128 µg/mL | > 128 µg/mL | > 128 µg/mL | > 128 µg/mL | > 128 µg/mL | 128 µg/mL (≈ 125 µM) | > 128 µg/mL | 
COc1ccc(Cn2c(=O)ccn([C@@H]3OC([C@H](O)[C@H](NCCCNC(=O)[C@@H](N)CC(C)C)C(=O)OC(C)(C)C)[C@@H](O[Si](C)(C)C(C)(C)C)[C@H]3O[Si](C)(C)C(C)(C)C)c2=O)cc1 (stereo partly drawn) [Example 5, tert-Butyl (2S,3R)-2-[(3-{[(2S)-2-amino-4-methylpentanoyl]amino}propyl)amino]-3-[(3R,4R,5R)-3,4-bis{[tert-butyl(dimethyl)silyl]oxy}-5-(3-(4-methoxybenzyl)-2,4-dioxo-3,4-dihydro-1(2H)-pyrimidinyl)tetrahydro-2-furanyl]-3-hydroxypropanoate] | > 128 µg/mL | > 128 µg/mL | > 128 µg/mL | > 128 µg/mL | > 128 µg/mL | > 128 µg/mL | > 128 µg/mL | > 128 µg/mL | > 128 µg/mL | > 128 µg/mL | > 128 µg/mL | 16 µg/mL (≈ 17.9 µM) | 4 µg/mL (≈ 4.48 µM) | 32 µg/mL (≈ 35.9 µM) | 8 µg/mL (≈ 8.97 µM) | 8 µg/mL (≈ 8.97 µM) | 8 µg/mL (≈ 8.97 µM) | 16 µg/mL (≈ 17.9 µM) | 4 µg/mL (≈ 4.48 µM) | 64 µg/mL (≈ 71.7 µM) | 
CC(C)C[C@H](NC(=O)OCc1ccccc1)C(=O)NCCCN[C@H](C(=O)OC(C)(C)C)[C@@H](O)C1O[C@@H](n2ccc(=O)[nH]c2=O)[C@H](O[Si](C)(C)C(C)(C)C)[C@@H]1O[Si](C)(C)C(C)(C)C (stereo partly drawn) [Example 6, tert-Butyl (5S,12S)-12-[(R)-[(3R,4R,5R)-3,4-bis{[tert-butyl(dimethyl)silyl]oxy}-5-(2,4-dioxo-3,4-dihydro-1(2H)-pyrimidinyl)tetrahydro-2-furanyl](hydroxy)methyl]-5-isobutyl-3,6-dioxo-1-phenyl-2-oxa-4,7,11-triazatridecan-13-oate] | > 128 µg/mL | > 128 µg/mL | 128 µg/mL (≈ 141 µM) | 128 µg/mL (≈ 141 µM) | > 128 µg/mL | > 128 µg/mL | > 128 µg/mL | 128 µg/mL (≈ 141 µM) | > 128 µg/mL | 128 µg/mL (≈ 141 µM) | > 128 µg/mL | > 128 µg/mL | > 128 µg/mL | > 128 µg/mL | > 128 µg/mL | > 128 µg/mL | > 128 µg/mL | > 128 µg/mL | 64 µg/mL (≈ 70.6 µM) | > 128 µg/mL | 
CC(C)C[C@H](N)C(=O)NCCCN[C@H](C(=O)OC(C)(C)C)[C@@H](O)C1O[C@@H](n2ccc(=O)[nH]c2=O)[C@H](O[Si](C)(C)C(C)(C)C)[C@@H]1O[Si](C)(C)C(C)(C)C (stereo partly drawn) [Example 7, tert-Butyl (2S,3R)-2-[(3-{[(2S)-2-amino-4-methylpentanoyl]amino}propyl)amino]-3-[(3R,4R,5R)-3,4-bis{[tert-butyl(dimethyl)silyl]oxy}-5-(2,4-dioxo-3,4-dihydro-1(2H)-pyrimidinyl)tetrahydro-2-furanyl]-3-hydroxypropanoate] | 128 µg/mL (≈ 166 µM) | > 128 µg/mL | 128 µg/mL (≈ 166 µM) | 128 µg/mL (≈ 166 µM) | 128 µg/mL (≈ 166 µM) | > 128 µg/mL | 32 µg/mL (≈ 41.4 µM) | 128 µg/mL (≈ 166 µM) | 128 µg/mL (≈ 166 µM) | 32 µg/mL (≈ 41.4 µM) | > 128 µg/mL | 2 µg/mL (≈ 2.59 µM) | 1 µg/mL (≈ 1.3 µM) | 1 µg/mL (≈ 1.3 µM) | 2 µg/mL (≈ 2.59 µM) | 2 µg/mL (≈ 2.59 µM) | 2 µg/mL (≈ 2.59 µM) | 1 µg/mL (≈ 1.3 µM) | 2 µg/mL (≈ 2.59 µM) | 2 µg/mL (≈ 2.59 µM) | 
COc1ccc(Cn2c(=O)ccn([C@@H]3OC([C@@H](O)[C@H](NCCCNC(=O)[C@@H](NC(=O)OCc4ccccc4)[C@H](C)O)C(=O)OC(C)(C)C)[C@@H](O[Si](C)(C)C(C)(C)C)[C@H]3O[Si](C)(C)C(C)(C)C)c2=O)cc1 (stereo partly drawn) [Example 8, tert-Butyl (5S,12S)-12-[(S)-[(3R,4R,5R)-3,4-bis{[tert-butyl(dimethyl)silyl]oxy}-5-(3-(4-methoxybenzyl)-2,4-dioxo-3,4-dihydro-1(2H)-pyrimidinyl)tetrahydro-2-furanyl](hydroxy)methyl]-5-[(1S)-1-hydroxyethyl]-3,6-dioxo-1-phenyl-2-oxa-4,7,11-triazatridecan-13-oate] |  |  |  |  |  |  |  |  |  |  |  |  |  |  |  |  |  |  |  |  | MIC (S. marcescens GC 4077): 64 µg/mL (≈ 63.1 µM); MIC (E. coli GC 3226): > 128 µg/mL; MIC (M. morganii GC 4531): 64 µg/mL (≈ 63.1 µM); MIC (P. aeruginosa GC 4532): 64 µg/mL (≈ 63.1 µM); MIC (E. cloacae GC 3783): 64 µg/mL (≈ 63.1 µM); MIC (E. coli GC 4559): > 128 µg/mL; MIC (C. albicans GC 3066): 32 µg/mL (≈ 31.5 µM); MIC (P. aeruginosa GC 2214): 64 µg/mL (≈ 63.1 µM); MIC (K. pneumoniae GC 4534): 64 µg/mL (≈ 63.1 µM); MIC (E. coli GC 4560): 64 µg/mL (≈ 63.1 µM); MIC (E. coli GC 2203): 64 µg/mL (≈ 63.1 µM); MIC (E. faecalis GC 842): 64 µg/mL (≈ 63.1 µM); MIC (CNS GC 4537): 128 µg/mL (≈ 126 µM); MIC (S. aureus GC 1131): 128 µg/mL (≈ 126 µM); MIC (S. aureus GC 2216): 128 µg/mL (≈ 126 µM); MIC (CNS GC 4538): 128 µg/mL (≈ 126 µM); MIC (E. faecalis GC 4555): 64 µg/mL (≈ 63.1 µM); MIC (S. aureus GC 4536): 128 µg/mL (≈ 126 µM); MIC (E. faecalis GC 2242): 64 µg/mL (≈ 63.1 µM); MIC (CNS GC 4547): 128 µg/mL (≈ 126 µM)
COc1ccc(Cn2c(=O)ccn([C@@H]3OC([C@@H](O)[C@H](NCCCNC(=O)[C@@H](N)[C@H](C)O)C(=O)OC(C)(C)C)[C@@H](O[Si](C)(C)C(C)(C)C)[C@H]3O[Si](C)(C)C(C)(C)C)c2=O)cc1 (stereo partly drawn) [Example 9, tert-Butyl (2S,3S)-2-[(3-{[(2S,3S)-2-amino-3-hydroxybutanoyl]amino}propyl)amino]-3-[(3R,4R,5R)-3,4-bis{[tert-butyl(dimethyl)silyl]oxy}-5-(3-(4-methoxybenzyl)-2,4-dioxo-3,4-dihydro-1(2H)-pyrimidinyl)tetrahydro-2-furanyl]-3-hydroxypropanoate] | > 128 µg/mL | > 128 µg/mL | > 128 µg/mL | 128 µg/mL (≈ 145 µM) | > 128 µg/mL | > 128 µg/mL | 128 µg/mL (≈ 145 µM) | 128 µg/mL (≈ 145 µM) | > 128 µg/mL | 128 µg/mL (≈ 145 µM) | > 128 µg/mL | > 128 µg/mL | 128 µg/mL (≈ 145 µM) | 128 µg/mL (≈ 145 µM) | 128 µg/mL (≈ 145 µM) | 128 µg/mL (≈ 145 µM) | 128 µg/mL (≈ 145 µM) | 128 µg/mL (≈ 145 µM) | 128 µg/mL (≈ 145 µM) | 8 µg/mL (≈ 9.09 µM) | 
